Changes are numbered by the printed parent chain.
Assays:
[1] = target: T1, recombinant honeybee (Apis mellifera) silk protein AmelF3, unmodified, SEQ ID NO: 39 (Apis mellifera, UniProt A0ACM8QI31); assay: Binding of macrocycles/chelates to AmelF3 sponges or films (colour retained after washing, UV/Vis); settings: sponge or film, qualitative
T1 construct: sponges and films
Procedure: (§1) Full length, recombinant honeybee silk proteins (AmelF3) without affinity purification tags, were produced by fermentation in Escherichia coli as described in Weisman et al. (2010). Full length, recombinant Weaver Ant/Green Ant (Oecophylla smaragdina) silk proteins (GA1, GA2, GA3, GA4) without affinity purification tags, were produced by fermentation in Escherichia coli following the same procedures as outlined in Weisman et al. (2010).
AmelF3 sponges were prepared as described in example 1. […] The colour change observed with honeybee silk indicates a change in the coordination of the iron metal centre within the haem group, producing a material with a similar coordination to red haemoglobin. The colour was not removed by extensive washing with 70% methanol, 0.1M HCl or 0.1M NaCl.
An embodiment of the composition of the present invention was formed by co-drying a solution of AmelF3 and haem b. Briefly, 2 mg haem b and 20 mg AmelF3 silk sponge was dissolved in 1 mL of HFIP overnight at room temperature. The solution was aliquoted into either a cuvette or 24-well plate and dried at room temperature. The dried film was soaked overnight in 70% methanol to make the film insoluble in water.
(§2) Alternatively, haem b was ‘leached’ into a pre-formed film. The AmelF3 material was formed as described in example 1. The silk material was soaked in a solution of haem b (0.5 mg/mL; haem b in excess) in 70% methanol solution for between 1 and 48 hours followed by washing with 70% methanol to remove any unbound haem b and dried at room temperature.
AmelF3 films with different ratios of haem b to AmelF3 were prepared by co-drying haem and AmelF3 HFIP solutions. At low haem loadings (haem:protein molar ratios of 1:1 and 1:2), a sharp Soret peak at 404 nm was observed, indicative of all the haem being coordinated (FIG. 3). As the concentration of haem b relative to the protein was increased, the Soret peak broadened and shifted to lower wavelengths indicating an increase in the amount of uncoordinated haem (FIG. 3).
The ability of sponges generated from recombinant AmelF3 to bind a range of macrocyles was tested by adding a solution of the macrocmacrocycle containing an excess of the macrocycle to be tested to the AmelF3 sponge and observing the colour of the sponge and whether the sponge retained colour after washing. The strength of macrocycle binding was assessed qualitatively by assessing the intensity of the colour retained by the sponge after washing. Strong binding to the sponge refers to the finding that the macrocycle cannot be washed out with aqueous methanol, organic solvents, 0.1 M HCl or 0.1 M NaOH.
Films generated from recombinant honeybee silk protein AmelF3 containing dicyanocobyrinic acid heptamethyl ester were prepared as described in example 3. UV/Vis spectrum were recorded for a film generated from recombinant AmelF3 containing dicyanocobyrinic acid heptamethyl ester and a solution of dicyanocobyrinic acid heptamethyl ester without AmelF3 (FIG. 8).

[2] = target: T2, Apis mellifera AmelF3 (SEQ ID NO: 39) variant Y76A A97H (Apis mellifera, UniProt A0ACM8QI31, A116H/Y95A); assay: Binding of haem to AmelF3 Y76A A97H; settings: sharp Soret peak at 413 nm
T2 sequence (A0ACM8QI31 20-335 Y95A/A116H): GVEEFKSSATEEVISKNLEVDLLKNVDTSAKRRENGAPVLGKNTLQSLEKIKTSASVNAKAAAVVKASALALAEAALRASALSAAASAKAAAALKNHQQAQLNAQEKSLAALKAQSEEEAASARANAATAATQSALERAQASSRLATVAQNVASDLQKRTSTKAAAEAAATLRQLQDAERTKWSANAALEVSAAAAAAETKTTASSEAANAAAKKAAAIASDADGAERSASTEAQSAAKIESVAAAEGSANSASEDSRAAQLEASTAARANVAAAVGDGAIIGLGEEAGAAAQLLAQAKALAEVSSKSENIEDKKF
Procedure: (§3) Site directed mutagenesis of honeybee silk proteins was carried using methods known to the person skilled in the art. For example, to generate AmelF3 Tyr76Ala, the forward primer 5′-[…]-3′ (SEQ ID NO: 80) with the corresponding reverse primer was employed and site directed mutagenesis was carried out using Pfx 50 DNA polymerase from Invitrogen following the Pfx50 manufactures instructions. All AmelF3 mutants were expressed and purified using a similar procedure as the unmodified AmelF3 silk protein. To generate AmelF3 Tyr76His, the forward primer 5′-[…]-3′ (SEQ ID NO: 81) with the corresponding reverse primer was employed. To generate AmelF3 Ala97His, the forward primer 5′-[…]-3′ (SEQ ID NO: 82) was used.
A coordinating His residue was introduced into AmelF3 with Y76A in the a-position of the coiled-coil.

[3] = target: T3, Oecophylla smaragdina silk fibroin 3 (GA3), SEQ ID NO: 11 (Oecophylla smaragdina, UniProt A8IM91); assay: Haem b leached into green ant silk GA3 film; type: binding; settings: signal at around 400 nm
T3 construct: film
T3 sequence (A8IM91 20-395): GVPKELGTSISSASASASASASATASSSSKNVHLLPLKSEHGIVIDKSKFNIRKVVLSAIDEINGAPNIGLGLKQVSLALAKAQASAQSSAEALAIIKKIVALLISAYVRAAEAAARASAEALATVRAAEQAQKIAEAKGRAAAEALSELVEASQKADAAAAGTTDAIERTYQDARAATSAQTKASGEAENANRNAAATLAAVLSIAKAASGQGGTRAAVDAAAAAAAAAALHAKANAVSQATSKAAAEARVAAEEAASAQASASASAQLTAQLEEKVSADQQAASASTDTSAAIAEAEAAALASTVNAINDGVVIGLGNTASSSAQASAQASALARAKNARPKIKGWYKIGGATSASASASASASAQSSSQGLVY
Source text: as §1, §2
Transparent films from the Green Ant (Oecophylla smaragdina) (GA1-4) silk proteins were prepared as described above. Haem b in 70% methanol was leached into the preformed Green Ant silk film as described at Example 3. UV/Vis spectra were collected for Green Ant silk film after haem b had been leached.

[4] = target: T4, Apis mellifera AmelF3 (SEQ ID NO: 39) variant Tyr76His (Y76H) (Apis mellifera, UniProt A0ACM8QI31, Y95H); assay: Binding of haem b to AmelF3 Tyr76His; settings: UV/Vis, in solution and film
T4 construct: solution and film
T4 sequence (A0ACM8QI31 20-335 Y95H): T2 sequence (A0ACM8QI31 20-335 Y95A/A116H) with A76H, H97A
Procedure: as §3
The present inventors also mutated Tyr76 to a histidine and investigated the effect the single amino acid substitution had on binding to haem b. […] The sharp peak observed at around 400 nm is indicative of the coordination of an amino acid residue to the iron haem centre.
A coordinating His residue (His97) was introduced into AmelF3 with Y76H substitution in the a-position of the coiled-coil.

T1 sequence (A0ACM8QI31 entry or part of it): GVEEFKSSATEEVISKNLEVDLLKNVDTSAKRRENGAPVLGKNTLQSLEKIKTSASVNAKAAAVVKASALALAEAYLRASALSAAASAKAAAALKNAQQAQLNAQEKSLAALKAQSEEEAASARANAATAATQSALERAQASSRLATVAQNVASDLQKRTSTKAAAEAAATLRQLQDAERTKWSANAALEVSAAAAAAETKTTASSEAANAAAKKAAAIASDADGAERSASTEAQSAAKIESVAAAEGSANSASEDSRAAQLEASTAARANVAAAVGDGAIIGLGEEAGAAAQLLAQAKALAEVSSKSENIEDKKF

## C=CC1=C(C)c2cc3[nH]c(cc4nc(cc5[nH]c(cc1n2)c(C)c5CCC(=O)O)C(CCC(=O)O)=C4C)c(C)c3C=C.[Fe] [haem b]
[1]
  binding to silk protein (in words): strongly bound
[2]
  haem coordination (in words): indicative of histidine coordination
[3]
  haem binding (in words): strongly bound haem
[4]
  binding to silk protein (in words): bound haem b via a co-ordinate bond

— patent US10870875B2, “Metalloprotein compositions” (Commonwealth Scientific and Industrial Research Organisation, priority 2014, dated 2020)
